Data set [1] in a line: Rat pharmacokinetics, oral cassette dosing. On the set-up: species or system Sprague Dawley rats. To be noted: Sprague Dawley, in vivo; for AUC(0-t) / Cmax / AUC(0-inf): female rats, oral cassette; for AUC(0-t): 0 to 8 h; for Cmax: blood; for AUC(0-inf): calculated to infinity; for half-life: female, po. The method, then:
The pharmacokinetics of compounds of the present invention was evaluated in 3 female Sprague Dawley rats (8 week old) after oral cassette dosing (vehicle: 5% solutol/95% NaCl solution (at 0.9% saline concentration; application volume: 5 mL/kg) to asses the exposure of the test items. At each designated time point (0.25, 0.5, 1, 2, 4 and 8 h after dosing), 20 μL blood were collected from the tail vein into Li-heparin tubes, cooled on ice and stored at −20° C. until processed for LC-MS analysis. The obtained data is as follows: […]

Data set [2] addresses N-terminally truncated recombinant hDHODH enzyme (Homo sapiens, UniProt Q02127). In words: biochemical. Format: biochemical. Here is the method: Briefly, the hDHODH concentration was adjusted in a way that an average slope of approximately 0.2 AU/min served as the positive control (e.g. without inhibitor). The standard assay mixture contained 60 μM 2,6-dichloroindophenol, 50 μM decylubiquinone and 100 μM dihydroorotate. The hDHODH enzyme with or without at least six different concentrations of the compounds was added and measurements were performed in 50 mM TrisHCl, 150 mM KCl and 0.1% Triton X-100 at pH 8.0 and at 30° C. The reaction was started by adding dihydroorotate and measuring the absorption at 600 nm for 2 min. For the determination of the IC50 values, each data point was recorded in triplicate. […].

Data set [3] can be described thus: Metabolic stability in rat liver microsomes. To be noted: SD. The source says: (§1) The metabolism was monitored by HPLC-MS/MS. Verapamil served as positive control.
Data set [4] can be described thus: Metabolic stability in human liver microsomes.
Excerpt: as §1

A further data set deals with SARS-CoV-2. Briefly: SARS-CoV-2 viral replication (YFP) assay. It is filed as cell-based. The conditions noted are these: Severe acute respiratory syndrome coronavirus 2, read-out: EC50 range.
The nature of data set [5]: Mouse pharmacokinetics, female, deuteration matched pair analysis. It is filed as in vivo, mice (C57BL/6J). To be noted: for AUC(0-t) / Cmax / half-life: C57BL/6J, mouse, in vivo; for AUC(0-t) / Cmax / F: female mice; for AUC(0-t): 0 to 8 h; for Cmax: 5 mg/kg oral, 1 mg/kg intravenous cassette; for F: bioavailability; for half-life: female. The method, then: In another matched pair analysis the benefit of deuteration of the N-methoxyacetamide moiety was tested: the pharmacokinetic properties of the compounds were evaluated in 3 female mice (C57BL/6J, 8 week old) after oral or intravenous cassette dosing to assess the oral bioavailability. Dose was 5 mg/kg (oral) and 1 mg/kg (intravenous), application volume was 5 mL/kg (oral) and 2 mL/kg (intravenous), vehicle was 5% solutol, 95% NaCl solution (at 0.9% saline concentration) for oral and 5% solutol, 5% ethanol, 90% NaCl solution (at 0.9% saline concentration) for intravenous application. At each designated time point (0.25, 0.5, 1, 2, 4 and 8 h after dosing for oral; 0.083, 0.25, 0.5, 1, 4 and 8 h after dosing for intravenous), 20 μL whole blood were collected from the tail vein into Li-heparin tubes, frozen on dry ice within 1-2 minutes of sampling and stored at −20° C. until processed for LC-MS analysis.

The mark [6] stands for this setting: human DHODH assay, read-out: IC50 range.

Read-outs that look alike come from different tables or passages of the source.

Sequence of N-terminally truncated recombinant hDHODH enzyme (Q02127 whole entry, looked up, the tested form may be a part): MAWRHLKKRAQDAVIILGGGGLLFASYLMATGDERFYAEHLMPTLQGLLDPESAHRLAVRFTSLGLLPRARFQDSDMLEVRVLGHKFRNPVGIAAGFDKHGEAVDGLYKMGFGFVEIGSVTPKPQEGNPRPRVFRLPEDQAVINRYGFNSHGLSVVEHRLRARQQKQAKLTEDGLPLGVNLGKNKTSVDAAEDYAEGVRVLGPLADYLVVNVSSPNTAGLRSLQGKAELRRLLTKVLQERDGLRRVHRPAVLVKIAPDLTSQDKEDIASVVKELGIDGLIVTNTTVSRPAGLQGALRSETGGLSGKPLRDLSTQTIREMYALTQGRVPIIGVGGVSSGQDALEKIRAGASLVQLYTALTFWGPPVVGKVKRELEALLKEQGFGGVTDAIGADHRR

As for `CONC(=O)C1=C(C(=O)Nc2c(F)c(F)c(-c3cccc(OC)c3)c(F)c2F)COC1` [Example 5/9], in data set [1], the AUC(0-t) turned out to be 91 µM·h, the peak level (Cmax) was 17 µM, the AUC(0-inf) was 185 µM·h and the half-life is 6.6 h. For the same compound, the IC50 in data set [2] (setting [6]) is < 0.1 µM.

`COc1cccc(-c2c(F)c(F)c(NC(=O)C3=C(C(=O)NS(C)(=O)=O)CCC3)c(F)c2F)c1` [Example 1/13]: the intrinsic metabolic clearance (microsomal CLint) is 35.4 µL/min/mg in data set [3] (female), 25.5 µL/min/mg in data set [3] (male), 10.3 µL/min/mg in data set [4] (female) and 14.4 µL/min/mg in data set [4] (male). In addition, the IC50 in data set [2] (setting [6]) was < 0.1 µM.

In the case of `[2H]C([2H])([2H])Oc1cccc(-c2cc(F)c(NC(=O)c3ccsc3C(=O)NOCCO)c(F)c2)c1` [Example 9/1], the microsomal CLint was found to be 52.8 µL/min/mg in data set [3] (female), 162 µL/min/mg in data set [3] (male), 40.4 µL/min/mg in data set [4] (female) and 67.2 µL/min/mg in data set [4] (male). Also, the EC50 in the data set on SARS-CoV-2 is < 1 µM. Besides, the 50% inhibitory concentration (IC50) in data set [2] (setting [6]) was < 0.1 µM.

Turning to `[2H]C([2H])([2H])Oc1cccc(-c2c(F)c(F)c(NC(=O)C3=C(C(=O)NS(C)(=O)=O)CCC3)c(F)c2F)c1` [Example 1/7], the microsomal CLint was found to be 30.5 µL/min/mg in data set [3] (female), 20 µL/min/mg in data set [3] (male), 4.01 µL/min/mg in data set [4] (female) and 1.32 µL/min/mg in data set [4] (male). Further, the EC50 in the data set with SARS-CoV-2 is < 10 µM. Moreover, the IC50 in data set [2] (setting [6]) is < 0.1 µM.

For the compound `[2H]C([2H])([2H])Oc1cccc(-c2c(F)c(F)c(NC(=O)C3=C(C(=O)NOC)COC3)c(F)c2F)c1` [Example 5/4], in data set [1], the AUC(0-t) was 125 µM·h, the Cmax is 21 µM, the area under the curve AUC(0-inf) is 271 µM·h and the half-life was 7.9 h. In data set [5], the AUC(0-t) is 106 µg·h/mL, the Cmax turned out to be 18000 ng/mL, the F amounted to 39% and the half-life was > 8 h. For the same compound, the EC50 in the data set on SARS-CoV-2 is < 1 µM. Besides, the IC50 in data set [2] (setting [6]) was < 0.1 µM.

For `[2H]C([2H])([2H])ONC(=O)C1=C(C(=O)Nc2c(F)c(F)c(-c3cccc(OC([2H])([2H])[2H])c3)c(F)c2F)COC1` [Example 5/5], in data set [1], the AUC(0-t) was found to be 113 µM·h, the Cmax came out at 19 µM, the AUC(0-inf) was 252 µM·h and the half-life was 8.4 h. In addition, in data set [5], the AUC(0-t) was 165 µg·h/mL, the Cmax is 70000 ng/mL, the F was 56% and the half-life was > 8 h. Moreover, the EC50 with SARS-CoV-2 is < 1 µM. In addition, the IC50 in data set [2] (setting [6]) is < 0.1 µM.

For the compound `[2H]c1c([2H])c([2H])c(-c2c(F)c(F)c(NC(=O)C3=C(C(=O)NOC([2H])([2H])[2H])COC3)c(F)c2F)c([2H])c1[2H]` [Example 5/1], the EC50 in the data set with SARS-CoV-2 is < 1 µM. In addition, the IC50 in data set [2] (setting [6]) is < 0.1 µM.

In the case of `[2H]C([2H])([2H])Oc1cccc(-c2c(F)c(F)c(NC(=O)C3=C(C(=O)NS(C)(=O)=O)CC(F)(F)C3)c(F)c2F)c1` [1/12], in the data set with SARS-CoV-2, the concentration giving a half-maximal response (EC50) is < 1 µM. Also, the IC50 in data set [2] (setting [6]) was < 0.1 µM.

On to `[2H]C([2H])([2H])Oc1cccc(-c2ccc(NC(=O)C3=C(C(=O)NOC)CCC3)c3cnccc23)c1` [4/11], for which the EC50 in the data set on SARS-CoV-2 was in the range of 25 to 50 µM. Also, the IC50 in data set [2] (setting [6]) was > 10 µM.

In the case of `[2H]C([2H])([2H])Oc1cccc(-c2cc(F)c(NC(=O)C3=C(C(=O)NOC)CCC3)c(C#N)c2)c1` [8/3], the EC50 in the data set with SARS-CoV-2 is < 10 µM. Moreover, the IC50 in data set [2] is 1 to 10 µM.

For `[2H]C([2H])([2H])Oc1cccc(-c2cc(F)c(NC(=O)C3=C(C(=O)NS(=O)(=O)C4(C)CC4)CCC3)c(F)c2)c1` [1/2], in the data set with SARS-CoV-2, the EC50 was in the range of 10 to 25 µM. Besides, the IC50 in data set [2] (setting [6]) is > 10 µM.

As to `[2H]C([2H])([2H])ONC(=O)C1=C(C(=O)Nc2c(F)c(F)c(-c3cccc(OC([2H])([2H])[2H])c3)c(F)c2F)CCC1` [4/22], in the data set on SARS-CoV-2, the EC50 is < 1 µM. Moreover, the half-inhibitory concentration (IC50) in data set [2] (setting [6]) was < 0.1 µM.

On to `[2H]C([2H])([2H])Oc1ccccc1-c1c(F)c(F)c(NC(=O)C2=C(C(=O)NOCCO)CCC2)c(F)c1F` [4/27], for which, in the data set with SARS-CoV-2, the EC50 is < 1 µM. Besides, the IC50 in data set [2] fell in the range of 0.1 to 1 µM.

For `[2H]C([2H])([2H])Oc1cccc(-c2c(F)c(F)c(NC(=O)c3c[nH]cc3C(=O)NOC)c(F)c2F)c1` [4/30], the half-maximal effective concentration (EC50) in the data set on SARS-CoV-2 is < 10 µM. Moreover, the IC50 in data set [2] was in the range of 0.1 to 1 µM.

Turning to `[2H]C([2H])([2H])Oc1cccc(-c2ccc(NC(=O)c3ccsc3C(=O)NOC)c(F)c2F)c1` [9/4], the EC50 in the data set with SARS-CoV-2 was < 1 µM. Also, the IC50 in data set [2] (setting [6]) is < 0.1 µM.

Consider `[2H]C([2H])([2H])Oc1cccc(-c2c(F)c(F)c(NC(=O)C3=C(C(=O)NOCCO)CSC3)c(F)c2F)c1` [6/2], for which the EC50 in the data set on SARS-CoV-2 is < 10 µM. For the same compound, the IC50 in data set [2] (setting [6]) is < 0.1 µM.

In the case of `CONC(=O)C1=C(C(=O)Nc2c(F)cc(-c3cccc4ocnc34)cc2F)CCC1` [4/14], in the data set on SARS-CoV-2, the half-maximal effective concentration (EC50) was < 10 µM. For the same compound, the IC50 in data set [2] was 1 to 10 µM.

As for `[2H]C([2H])([2H])Oc1ccccc1-c1cc(F)c(NC(=O)C2=C(C(=O)NS(C)(=O)=O)CCC2)c(F)c1` [1/6], in the data set with SARS-CoV-2, the EC50 was in the range of 25 to 50 µM. Moreover, in data set [2] (setting [6]), the IC50 is < 0.1 µM.

As to `CONC(=O)c1sccc1C(=O)Nc1c(F)cc(-c2cccc(OC)c2)cc1F` [Example 9/9], the microsomal CLint was 69.3 µL/min/mg in data set [3] (female), 192 µL/min/mg in data set [3] (male), 66.1 µL/min/mg in data set [4] (female) and 93.9 µL/min/mg in data set [4] (male). In addition, the IC50 in data set [2] (setting [6]) is < 0.1 µM.

Take `[2H]C([2H])([2H])Oc1cccc(-c2c(F)c(F)c(NC(=O)C3=C(C(=O)NOC)CSC3)c(F)c2F)c1` [Example 6/1]: the EC50 in the data set with SARS-CoV-2 is < 1 µM. Further, the half-maximal inhibitory concentration (IC50) in data set [2] (setting [6]) was < 0.1 µM.

For the compound `[2H]C([2H])([2H])C([2H])([2H])Oc1cccc(-c2cc(F)c(NC(=O)C3=C(C(=O)NS(C)(=O)=O)CCC3)c(F)c2)c1` [1/5], the concentration giving a half-maximal response (EC50) in the data set on SARS-CoV-2 was < 10 µM. Further, in data set [2] (setting [6]), the IC50 is < 0.1 µM.

Turning to `[2H]C([2H])([2H])Oc1cccc(-c2cc(F)c(NC(=O)C3=C(C(=O)NOC)CCC3)c(OC([2H])([2H])[2H])c2)c1` [8/2], the EC50 with SARS-CoV-2 is < 10 µM. Moreover, the concentration for half-maximal inhibition (IC50) in data set [2] is 1 to 10 µM.

On to `[2H]C([2H])([2H])Oc1cccc(-c2c(F)c(F)c(NC(=O)c3cc(C)sc3C(=O)NOC)c(F)c2F)c1` [Example 17-1, N2-Methoxy-5-methyl-N3-(2,3,5,6-tetrafluoro-3′-(methoxy-d3)-[1,1′-biphenyl]-4-yl)thiophene-2,3-dicarboxamide], for which, in the data set on SARS-CoV-2, the EC50 was < 1 µM. Further, in data set [2], the IC50 is < 0.1 µM.

As for `[2H]C([2H])([2H])ONC(=O)c1sccc1C(=O)Nc1c(F)c(F)c(-c2cccc(OC([2H])([2H])[2H])c2)c(F)c1F` [9/6], in data set [5], the area under the curve AUC(0-t) came to 25 µg·h/mL, the highest level (Cmax) was 6700 ng/mL, the F is reported as 76% and the half-life is 2.5 h. Also, in the data set with SARS-CoV-2, the concentration for a half-maximal effect (EC50) is < 1 µM. Also, in data set [2] (setting [6]), the IC50 is < 0.1 µM.

For the compound `[2H]C([2H])([2H])Oc1ccccc1-c1c(F)c(F)c(NC(=O)C2=C(C(=O)NOC)CCC2)c(F)c1F` [4/26], the EC50 with SARS-CoV-2 was < 1 µM. Moreover, in data set [2] (setting [6]), the half-maximal inhibitory concentration (IC50) is < 0.1 µM.

Turning to `CONC(=O)C1=C(C(=O)Nc2c(F)cc(-c3cccc4c3OCO4)cc2F)CCC1` [4/13], in the data set with SARS-CoV-2, the concentration giving a half-maximal response (EC50) is < 10 µM. Also, the IC50 in data set [2] lay within 1 to 10 µM.

These data come from patent publication US20250066290A1, “DHODH INHIBITORS CONTAINING A CARBOXYLIC ACID BIOISOSTERE” (IMMUNIC AG, priority 2021, published 2025).
